Measurements from patent US10662146B2, “Prodrugs of fencamfamine” (Praxis Bioresearch, LLC, priority 2015, dated 2020).
Several values for one entry are separate records, joined by “and”; a condition that tells them apart may be missing. Equal values may be shown once. Read-outs that look alike come from different tables or passages of the source.

Test: Single dose intravenous PK study in male Sprague Dawley rats (plasma by LC-MS/MS)
Type: in vivo
Settings: for AUC(0-inf): read-out: AUCinf of PRX-P5-006; for AUC(0-t): read-out: AUClast of PRX-P5-006; for clearance: read-out: CL of PRX-P5-006; for AUC: read-out: IV PK Parameters AUC, Prodrug; for C0: read-out: C0 of PRX-P5-006
Description: We describe here PK results of prodrugs of PRX-002 (−) or (+) isomers. All doses of prodrugs were administered such that they were equivalent to 5 mg/kg of PRX-002 (−) or (+) for oral studies and 2 mg/kg PRX-002 (−) or (+) for intravenous studies in male Sprague-Dawley (MSD) rats. Higher doses of up to 10 or 15 mg/kg [again equivalent to PRX-002 (−)] were used in some studies (as specified)]. Formulation preparation, dose administration and time of sample collection was as follows.
(§1) Adult male Sprague Dawley Rats aged 8-10 weeks were used for the study. Animals were administered the test item by Intravenous bolus route with a dose of 2 mg/kg body weight at dose volume of 5.0 mL/kg body weight. Under mild isoflurane anesthesia, blood specimens were collected by retro-orbital puncture method using capillary tubes into pre-labeled tubes containing anticoagulant (K2EDTA-2 mg/mL blood) during the next 24 hours of post dose as mentioned in below table. For blood sampling at multiple time points, right and left eyes were used alternatively for blood collection. Collected blood specimens were centrifuged at 4000 rpm, 4° C. for 10 minutes and plasma were separated and stored at −80° C. until analysis.
Blood was collected as outlined in Table 39.2 (IV).
Test item PRX-P4-003 was weighed and transferred to a graduated tube. Then 600 μL of PEG 400 (v/v) was added and vortex mixed thoroughly until the test item was completely dissolved. Then 1.800 mL of Hydroxypropyl-β-cyclodextrin (HPβCD, 50% w/v) was added and vortex mixed thoroughly. The final volume was then made up to 3.600 mL with sterile water for injection (SWFI, v/v) with final formulation strength of 5.16 mgA/mL. […] This formulation was freshly prepared before the administration to animals.
as §1, with “administered with a PRX-P4-003” for “administered the test item”, “of 10” for “of 2”, “of 5” for “of 5.0”
Test item PRX-P5-006 was weighed and transferred to a graduated tube. Then 500 μL of DMSO (v/v) was added vortex mixed thoroughly until the test item was completely dissolved. Then 4000 μL of Hydroxypropyl-β-cyclodextrin (HPβCD, 50% w/v) was added and vortex mixed thoroughly. Then 2500 μL of PEG 400 (v/v) was added and vortex mixed thoroughly. The final volume was then made up to 10000 μL with sterile water for injection (SWFI, v/v) with final formulation strength of 3.97 mg/mL. […] This formulation was freshly prepared before the administration to animals.
as §1, with “administered with a PRX-P5-006” for “administered the test item”, “of 15” for “of 2”, “of 10” for “of 5.0”
The plasma concentrations of fencamfamine were measured by LC-MS/MS over time. […] The release of fencamfamine from the prodrugs varied depending on the chain length of the fatty acid linkers attached to fencamfamine. […]

[1] = PRX-P5-006 IV 2 mg/kg b.w., individual animals, 2 mg/kg
[2] = PRX-P5-006 IV 2 mg/kg, mean, 2 mg/kg
[3] = male, Sprague Dawley, rat, plasma, iv, 2 mg/kg, PRX-P5-006 IV 2 mg/kg, mean
[4] = male, Sprague-Dawley, rat, plasma, iv, 2 mg/kg, PRX-P5-006 IV 2 mg/kg b.w., individual animals

CCCCCCCCCCCCCCCCCC(=O)OC(C)OC(=O)N(CC)C1C2CCC(C2)C1c1ccccc1 (single isomer, unassigned) [PRX-P5-006, N-(1-Octadecanoyloxyethoxycarbonyl)-(−)-N-ethyl-3-phenylbicyclo[2.2.1]heptan-2-amine]
AUC% extrap of PRX-P5-006 [1]: 5.16% and 3.49% and 11.16%
AUCinf of PRX-P5-006 [1]: 3977.39 ng·h/mL and 4119.23 ng·h/mL
AUClast of PRX-P5-006 [1]: 3838.58 ng·h/mL and 3659.58 ng·h/mL
C0 of PRX-P5-006 [1]: 32467.12 ng/mL and 21202.31 ng/mL
CL of PRX-P5-006 [1]: 8.38 mL/min/kg and 8.09 mL/min/kg
Cmax of PRX-P5-006 [1]: 8662.3 ng/mL and 7404.71 ng/mL
MRTlast of PRX-P5-006 [1]: 2.7 h and 0.93 h and 3.31 h
T1/2 of PRX-P5-006 [1]: 7.54 h and 2.06 h and 9.32 h
Vss of PRX-P5-006 [1]: 1.56 L/kg and 0.61 L/kg and 3.46 L/kg
AUC% extrap of PRX-P5-006 [2]: 6.602 ± 4.0330% and 6.602%
T1/2 of PRX-P5-006 [2]: 6.304 h
Level of intact PRX-P5-006 in plasma, IV versus oral (PRX-P5-006 administered IV (FIGS. 5A, 5B)): Much higher level of intact PRX-P5-006
Cmax (male, Sprague Dawley, rat, plasma, iv, 2 mg/kg, IV 2 mg/kg [equivalent to PRX-002 (−)], analyte: prodrug in plasma, mean, read-out: IV PK Parameters Cmax, Prodrug): 707 ± 500 ng/mL
AUC(0-inf) [3]: 4560 ± 894 ng·h/mL
AUC(0-t) [3]: 4270 ± 902 ng·h/mL
clearance [3]: 7.48 ± 1.32 mL/min/kg
Vd (male, Sprague Dawley, rat, plasma, iv, 2 mg/kg, PRX-P5-006 IV 2 mg/kg, mean, read-out: Vss of PRX-P5-006): 1.88 ± 1.45 L/kg
Cmax (male, Sprague Dawley, rat, plasma, iv, 15 mg/kg, IV 15 mg/kg (footnote *), analyte: prodrug in plasma, mean, read-out: IV PK Parameters Cmax, Prodrug): 16400 ± 7100 ng/mL
AUC (male, Sprague Dawley, rat, IV 2 mg/kg [equivalent to PRX-002 (−)], analyte: prodrug in plasma, mean): 410 ± 301 ng·h/mL
Tmax (male, Sprague Dawley, rat, IV 2 mg/kg [equivalent to PRX-002 (−)], analyte: prodrug in plasma, mean, read-out: IV PK Parameters Tmax, Prodrug): 4.8 min
AUC (male, Sprague Dawley, rat, IV 15 mg/kg (footnote *), analyte: prodrug in plasma, mean): 8060 ± 1760 ng·h/mL
Tmax (male, Sprague Dawley, rat, IV 15 mg/kg (footnote *), analyte: prodrug in plasma, mean, read-out: IV PK Parameters Tmax, Prodrug): 4.8 min
AUC(0-inf) [4]: 5590 ng·h/mL
AUC(0-t) [4]: 5300 ng·h/mL
C0 [4]: 36200 ng/mL
clearance [4]: 5.96 mL/min/kg
Cmax (male, Sprague-Dawley, rat, plasma, iv, 2 mg/kg, PRX-P5-006 IV 2 mg/kg b.w., individual animals, read-out: Cmax of PRX-P5-006): 11200 ng/mL
C0 (male, Sprague-Dawley, rat, plasma, iv, 2 mg/kg, PRX-P5-006 IV 2 mg/kg, mean): 30000 ng/mL
Cmax (male, Sprague-Dawley, rat, plasma, iv, 2 mg/kg, PRX-P5-006 IV 2 mg/kg, mean, read-out: Cmax of PRX-P5-006): 9100 ± 1950 ng/mL
MRT last (male, Sprague-Dawley, rat, plasma, iv, 2 mg/kg, PRX-P5-006 IV 2 mg/kg, mean, read-out: MRTlast of PRX-P5-006): 2.31 ± 1.24 h
half-life (male, Sprague-Dawley, rat, plasma, iv, 2 mg/kg, PRX-P5-006 IV 2 mg/kg, mean, read-out: T1/2 of PRX-P5-006 (converted)): 6.3 ± 3.79 h
Tmax (male, Sprague-Dawley, rat, plasma, PRX-P5-006 IV 2 mg/kg, mean, read-out: Tmax of PRX-P5-006): 4.8 min

CCCCCCCCCCCCCCCCCC(=O)OC(C)OC(=O)N(CC)C1C2CCC(C2)C1c1ccccc1 (single isomer, unassigned) [PRX-P5-011, N-(1-Octadecanoyloxyethoxycarbonyl)-(+)-N-ethyl-3-phenylbicyclo[2.2.1]heptan-2-amine]
Plasma concentration of PRX-P5-011 (PRX-P5-011 IV 2 mg/kg b.w., 0.08 h, individual animals, 2 mg/kg): 114.77 ng/mL and 37.09 ng/mL and 179.14 ng/mL
Plasma concentration of PRX-P5-011 (PRX-P5-011 IV 2 mg/kg b.w., 0.25 h, individual animals, 2 mg/kg): 56.47 ng/mL and 17.98 ng/mL and 101.04 ng/mL
Plasma concentration of PRX-P5-011 (PRX-P5-011 IV 2 mg/kg b.w., 0.50 h, individual animals): 0.00 ng/mL
Plasma concentration of PRX-P5-011 (PRX-P5-011 IV 2 mg/kg b.w., 1.00 h, individual animals): 0.00 ng/mL
Plasma concentration of PRX-P5-011 (PRX-P5-011 IV 2 mg/kg b.w., 2.00 h, individual animals): 0.00 ng/mL
Plasma concentration of PRX-P5-011 (PRX-P5-011 IV 2 mg/kg b.w., 4.00 h, individual animals): 0.00 ng/mL
Plasma concentration of PRX-P5-011 (PRX-P5-011 IV 2 mg/kg b.w., 6.00 h, individual animals): 0.00 ng/mL
Plasma concentration of PRX-P5-011 (PRX-P5-011 IV 2 mg/kg b.w., 24.00 h, individual animals): 0.00 ng/mL
concentration at 0.08 h (male, Sprague-Dawley, rat, plasma, iv, 2 mg/kg, PRX-P5-011 IV 2 mg/kg b.w., 0.08 h, mean): 110 ng/mL
concentration at 0.25 h (male, Sprague-Dawley, rat, plasma, iv, 2 mg/kg, PRX-P5-011 IV 2 mg/kg b.w., 0.25 h, mean): 58.5 ng/mL
concentration at 0.5 h (male, Sprague-Dawley, rat, plasma, iv, 2 mg/kg, PRX-P5-011 IV 2 mg/kg b.w., 0.50 h, individual animals): 0 ng/mL
concentration at 0.5 h (male, Sprague-Dawley, rat, plasma, iv, 2 mg/kg, PRX-P5-011 IV 2 mg/kg b.w., 0.50 h, mean): 0 ng/mL
concentration at 1 h (male, Sprague-Dawley, rat, plasma, iv, 2 mg/kg, PRX-P5-011 IV 2 mg/kg b.w., 1.00 h, individual animals): 0 ng/mL
concentration at 1 h (male, Sprague-Dawley, rat, plasma, iv, 2 mg/kg, PRX-P5-011 IV 2 mg/kg b.w., 1.00 h, mean): 0 ng/mL
concentration at 2 h (male, Sprague-Dawley, rat, plasma, iv, 2 mg/kg, PRX-P5-011 IV 2 mg/kg b.w., 2.00 h, individual animals): 0 ng/mL
concentration at 2 h (male, Sprague-Dawley, rat, plasma, iv, 2 mg/kg, PRX-P5-011 IV 2 mg/kg b.w., 2.00 h, mean): 0 ng/mL
concentration at 4 h (male, Sprague-Dawley, rat, plasma, iv, 2 mg/kg, PRX-P5-011 IV 2 mg/kg b.w., 4.00 h, individual animals): 0 ng/mL
concentration at 4 h (male, Sprague-Dawley, rat, plasma, iv, 2 mg/kg, PRX-P5-011 IV 2 mg/kg b.w., 4.00 h, mean): 0 ng/mL
concentration at 6 h (male, Sprague-Dawley, rat, plasma, iv, 2 mg/kg, PRX-P5-011 IV 2 mg/kg b.w., 6.00 h, individual animals): 0 ng/mL
concentration at 6 h (male, Sprague-Dawley, rat, plasma, iv, 2 mg/kg, PRX-P5-011 IV 2 mg/kg b.w., 6.00 h, mean): 0 ng/mL
concentration at 24 h (male, Sprague-Dawley, rat, plasma, iv, 2 mg/kg, PRX-P5-011 IV 2 mg/kg b.w., 24.00 h, individual animals): 0 ng/mL
concentration at 24 h (male, Sprague-Dawley, rat, plasma, iv, 2 mg/kg, PRX-P5-011 IV 2 mg/kg b.w., 24.00 h, mean): 0 ng/mL
